The source made the active and inactive calls. The calls are words filed in the database; no cut-off is given here.

The species named for experiment [1] is Rattus norvegicus. Kind of experiment: Drug discriminative activity in Sprague-Dawley rat measured as response on cocaine-appropriate lever. In kind it is functional.
Experiment [2] concerns the target Norepinephrine transporter (Rattus norvegicus, UniProt Q9WTR4). The experiment can be described thus: Displacement of [3H]nisoxetine from NET in Sprague-Dawley rat brain. In kind it is tissue-based. On the technique in general: Displacement assays read how much labelled ligand stays bound in the presence of the test substance.
Experiment [3] is filed under the species Rattus norvegicus. The experiment can be described thus: Selectivity for Sprague-Dawley rat DAT over rat M1 receptor.
The target in experiment [4] is Sodium-dependent serotonin transporter (Rattus norvegicus, UniProt P31652). Kind of experiment: Displacement of [3H]citalopram from SERT in Sprague-Dawley rat brain. It counts as tissue-based.
Sodium-dependent serotonin transporter, sequence (P31652 whole entry): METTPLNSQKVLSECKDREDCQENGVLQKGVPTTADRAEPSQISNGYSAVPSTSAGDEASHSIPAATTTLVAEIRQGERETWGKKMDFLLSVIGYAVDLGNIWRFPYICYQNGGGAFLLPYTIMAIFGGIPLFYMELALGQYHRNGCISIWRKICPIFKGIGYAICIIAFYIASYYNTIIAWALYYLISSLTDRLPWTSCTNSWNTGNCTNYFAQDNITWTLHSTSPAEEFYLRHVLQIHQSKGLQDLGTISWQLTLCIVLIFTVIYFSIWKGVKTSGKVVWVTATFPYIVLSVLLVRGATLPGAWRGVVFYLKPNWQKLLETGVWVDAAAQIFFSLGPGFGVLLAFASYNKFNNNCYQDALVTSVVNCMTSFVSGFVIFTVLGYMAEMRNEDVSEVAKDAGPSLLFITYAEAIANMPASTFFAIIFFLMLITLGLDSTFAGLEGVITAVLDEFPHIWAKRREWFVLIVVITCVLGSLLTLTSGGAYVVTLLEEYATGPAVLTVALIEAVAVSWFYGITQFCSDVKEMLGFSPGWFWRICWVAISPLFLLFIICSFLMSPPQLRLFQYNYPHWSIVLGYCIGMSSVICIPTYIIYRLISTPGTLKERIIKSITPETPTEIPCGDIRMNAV
Experiment [5] concerns the target T1, Muscarinic acetylcholine receptor M1 (Rattus norvegicus, UniProt P08482).
T1 sequence (P08482 whole entry): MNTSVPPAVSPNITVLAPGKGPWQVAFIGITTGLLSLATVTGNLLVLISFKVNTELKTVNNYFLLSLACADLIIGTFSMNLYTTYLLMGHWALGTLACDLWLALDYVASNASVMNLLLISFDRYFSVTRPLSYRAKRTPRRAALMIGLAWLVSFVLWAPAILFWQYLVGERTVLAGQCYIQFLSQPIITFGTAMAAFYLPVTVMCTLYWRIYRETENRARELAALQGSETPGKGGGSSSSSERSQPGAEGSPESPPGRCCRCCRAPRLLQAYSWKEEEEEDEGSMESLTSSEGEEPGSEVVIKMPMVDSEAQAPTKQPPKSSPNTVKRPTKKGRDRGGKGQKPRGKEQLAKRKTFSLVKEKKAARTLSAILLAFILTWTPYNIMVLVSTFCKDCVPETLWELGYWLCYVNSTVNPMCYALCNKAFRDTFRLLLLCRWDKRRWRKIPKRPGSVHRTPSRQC
The experiment can be described thus: Displacement of [3H]pirenzepine from M1 receptor in Sprague-Dawley rat brain.

Experiment [6] deals with T2, Sodium-dependent dopamine transporter (Rattus norvegicus, UniProt P23977). The experiment can be described thus: biochemical. It counts as tissue-based, Sprague-Dawley, Brain.
T2 sequence (P23977 whole entry): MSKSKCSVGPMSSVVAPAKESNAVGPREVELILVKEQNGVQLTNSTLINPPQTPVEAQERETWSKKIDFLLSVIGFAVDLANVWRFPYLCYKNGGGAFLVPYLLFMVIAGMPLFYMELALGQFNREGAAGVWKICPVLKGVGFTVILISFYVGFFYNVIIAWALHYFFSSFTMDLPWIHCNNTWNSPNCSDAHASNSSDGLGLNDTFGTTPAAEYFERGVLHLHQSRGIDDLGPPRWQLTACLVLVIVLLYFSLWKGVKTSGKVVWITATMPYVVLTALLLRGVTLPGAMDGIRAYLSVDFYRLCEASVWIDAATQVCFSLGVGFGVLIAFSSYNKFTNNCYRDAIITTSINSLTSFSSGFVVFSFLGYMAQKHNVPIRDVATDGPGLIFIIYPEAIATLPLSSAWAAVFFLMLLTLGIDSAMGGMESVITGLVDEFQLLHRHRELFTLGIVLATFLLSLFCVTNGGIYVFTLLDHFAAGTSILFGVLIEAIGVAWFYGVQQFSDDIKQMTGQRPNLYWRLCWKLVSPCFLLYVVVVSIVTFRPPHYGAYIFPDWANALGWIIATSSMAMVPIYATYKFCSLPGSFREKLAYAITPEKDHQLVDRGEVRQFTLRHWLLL
Description: Displacement of [3H]WIN-35428 from DAT in Sprague-Dawley rat brain
For experiment [7], the target named is T2, Sodium-dependent dopamine transporter. Kind of experiment: Inhibition of [3H]dopamine uptake at DAT in Sprague-Dawley rat brain.

Norepinephrine transporter, sequence (Q9WTR4 whole entry): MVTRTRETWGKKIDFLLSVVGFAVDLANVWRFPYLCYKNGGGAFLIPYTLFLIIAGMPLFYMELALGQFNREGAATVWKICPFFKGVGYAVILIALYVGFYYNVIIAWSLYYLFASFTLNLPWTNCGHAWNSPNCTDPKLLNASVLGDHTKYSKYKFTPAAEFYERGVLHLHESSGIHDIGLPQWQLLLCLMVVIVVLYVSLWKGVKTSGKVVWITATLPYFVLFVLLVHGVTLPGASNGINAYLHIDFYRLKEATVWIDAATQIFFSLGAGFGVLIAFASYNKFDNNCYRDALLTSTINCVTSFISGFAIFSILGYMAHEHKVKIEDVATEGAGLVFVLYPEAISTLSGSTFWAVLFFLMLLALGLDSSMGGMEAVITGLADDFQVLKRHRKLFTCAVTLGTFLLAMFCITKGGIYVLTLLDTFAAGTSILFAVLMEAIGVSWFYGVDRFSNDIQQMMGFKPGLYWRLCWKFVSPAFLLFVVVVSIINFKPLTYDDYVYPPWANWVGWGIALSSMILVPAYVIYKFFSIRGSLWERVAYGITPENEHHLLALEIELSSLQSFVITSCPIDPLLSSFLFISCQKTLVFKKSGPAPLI

`CN1C2CCC1CC(OC(c1ccc(F)cc1)c1ccc(F)cc1)C2` (stereo unspecified) [DIFLUOROBENZTROPINE] yielded an Activity in the experiment filed under Rattus norvegicus [1] of 65%.
Broadly, the Ki is a dissociation constant, usually derived from enzyme kinetics or from competition with a known ligand. High values mean lower affinity, low ones higher affinity. In turn, `CCOC(=O)[C@@H]1C2CCC(C[C@@H]1OC(c1ccc(F)cc1)c1ccc(F)cc1)N2` (stereo partly specified) came in with a Ki in experiment [2] of 0.563 µM. Also, the Ratio Ki in the experiment listed under Rattus norvegicus [3] is 1930.
The like results for `CN1C2CCC1[C@@H](COC(=O)CCCc1ccc(N)cc1)[C@@H](OC(c1ccc(F)cc1)c1ccc(F)cc1)C2` (stereo partly specified) were, in that order, 0.44 µM and 12.
`COC(=O)C1C(OC(c2ccc(Cl)cc2)c2ccc(Cl)cc2)CC2CCC1N2C` (racemic): the result in the experiment listed under Rattus norvegicus [1] was inactive.
The molecule `C=CCN1C2CCC1[C@@H](C(=O)OCC)[C@@H](OC(c1ccc(F)cc1)c1ccc(F)cc1)C2` (stereo partly specified) returned a Ki in experiment [2] of 0.935 µM. The Ratio Ki in the experiment filed under Rattus norvegicus [3] was found to be 1040.
As for `C=C[C@@H]1C2CCC(C[C@@H]1OC(c1ccc(F)cc1)c1ccc(F)cc1)N2C` (stereo partly specified), the inhibition constant (Ki) in experiment [2] was determined as 0.473 µM. Moreover, the Ratio Ki in the experiment filed under Rattus norvegicus [3] is 90.
As for `COC(=O)[C@@H]1C2CCC(C[C@@H]1OC(c1ccc(F)cc1)c1ccc(F)cc1)N2C` (stereo partly specified), the Ratio Ki in the experiment listed under Rattus norvegicus [3] was 45.
`COC(=O)CC[C@@H]1C2CCC(C[C@@H]1OC(c1ccc(F)cc1)c1ccc(F)cc1)N2C` (stereo partly specified) showed a Ki in experiment [2] of 0.454 µM. The Ratio Ki in the experiment listed under Rattus norvegicus [3] came to 832.
For `CCOC(=O)[C@@H]1C2CCC(C[C@@H]1OC(c1ccc(F)cc1)c1ccc(F)cc1)N2C` (stereo partly specified), the Ratio Ki in the experiment filed under Rattus norvegicus [3] worked out at 275.
In experiment [2], `CCCCN1C2CCC1[C@@H](C(=O)OCC)[C@@H](OC(c1ccc(F)cc1)c1ccc(F)cc1)C2` (stereo partly specified) displayed an inhibition constant (Ki) of 0.58 µM. Further, the Ratio Ki in the experiment filed under Rattus norvegicus [3] is 391.
As for `CN1C2CCC1[C@@H](COC(=O)CCCc1ccc([N+](=O)[O-])cc1)[C@@H](OC(c1ccc(F)cc1)c1ccc(F)cc1)C2` (stereo partly specified), the inhibition constant (Ki) in experiment [4] was 3.78 µM; in experiment [2] it was 2.13 µM; in experiment [5], 0.708 µM. Besides, in the experiment listed under Rattus norvegicus [3], the Ratio Ki worked out at 18.
With `CN1C2CCC1[C@@H](CO)[C@@H](OC(c1ccc(F)cc1)c1ccc(F)cc1)C2` (stereo partly specified), the Ki is 0.0034 µM in experiment [6] and 0.983 µM in experiment [2]. Besides, the Ratio Ki in the experiment filed under Rattus norvegicus [3] amounted to 31.
The term IC50 denotes the midpoint of a concentration-inhibition curve. Low readings indicate higher potency, high ones lower potency. Turning to `COC(=O)[C@@H]1C2CCC(C[C@@H]1OC(c1ccc(Cl)cc1)c1ccc(Cl)cc1)N2C` (stereo partly specified), the Ki is 0.0126 µM in experiment [6], 0.528 µM in experiment [4], 2.15 µM in experiment [2] and 0.382 µM in experiment [5]. This molecule registered an IC50 in experiment [7] of 0.00246 µM. Moreover, the Ratio Ki in the experiment listed under Rattus norvegicus [3] turned out to be 30.
On to `CCOC(=O)[C@@H]1C2CCC(C[C@@H]1OC(c1ccc(Cl)cc1)c1ccc(Cl)cc1)N2C` (stereo partly specified), for which the inhibition constant (Ki) was determined as 0.0146 µM in experiment [6], 1.56 µM in experiment [4], 3.35 µM in experiment [2] and 3.06 µM in experiment [5]. Further, in experiment [7], half-maximal inhibition (IC50) required 0.00152 µM.
With `COC(=O)/C=C/[C@@H]1C2CCC(C[C@@H]1OC(c1ccc(F)cc1)c1ccc(F)cc1)N2C` (stereo partly specified), affinity in experiment [2] was put at a Ki of 0.269 µM. In addition, the Ratio Ki in the experiment filed under Rattus norvegicus [3] amounted to 294.

Values taken from ChEMBL document CHEMBL1137401, “Structure-activity relationship studies on a novel series of (S)-2beta-substituted 3alpha-[bis(4-fluoro- or 4-chlorophenyl)methoxy]tropane analogues for in vivo investigation” (J Med Chem, 2006).
